Columns and labels:
HCT-116 = test: Cytotoxicity against human HCT116 cells after 72 hrs; format: functional, cell-based; settings: HCT-116, 72 h
HeLa = test: Cytotoxicity against human HeLa cells after 72 hrs; format: functional, cell-based

Compound	IC50 (HCT-116)	IC50 (HeLa)
C=C(C)[C@H]1C2=CC(C(=O)OC)=C(C[C@H](C(=C)C)[C@H](O)/C=C3\C(=O)O[C@@H]1[C@@H]3N[C@H]1C3=C[C@@H](OC3=O)[C@@H](C(=C)C)C3=CC(C(=O)OC)=C(C[C@H](C(=C)C)[C@H]1O)O3)O2 [BIS(PSEUDOPTERANE)AMINE]	4 µM	42 µM
C=C(C)[C@H]1C2=CC(C(=O)OC)=C(C[C@H](C(=C)C)[C@@H](O)[C@@H](N[C@H]3C4=C[C@@H](OC4=O)[C@@H](C(=C)C)C4=CC(C(=O)OC)=C(C[C@H](C(=C)C)[C@H]3O)O4)C3=C[C@H]1OC3=O)O2 [BIS(GORGIACEROL)AMINE]	28 µM	> 100 µM

From ChEMBL document CHEMBL1152412, “Isolation, biomimetic synthesis, and cytotoxic activity of bis(pseudopterane) amines” (J Nat Prod, 2009)
